Source: ChEMBL document CHEMBL4196131 (J Med Chem, 2018)
The source made the active and inactive calls. The calls are words filed in the database; no cut-off is given here.

Key:
[1] = target: T1, Estrogen receptor beta (Homo sapiens, UniProt Q92731); test: Binding affinity to human ERbeta LBD after 2 hrs in absence of light by competitive fluorometric binding assay
[2] = test system: Mus musculus; test: Antiinflammatory activity in Balb/c mouse xenografted with human MCF7 cells assessed as inhibition of NFkappaB expression in tissues around the tumor at 17.5 to 25 mg/kg, po administered once every 2 days via gavage measured after 2 weeks post dose; format: functional, organism-based
[3] = target: T2, Estrogen receptor (Homo sapiens) (UniProt P03372); test: Agonist activity at human ERalpha expressed in HEK293T cells after 24 hrs by ERE-based dual luciferase reporter gene assay relative to E2; format: cell-based
T2 sequence (whole entry): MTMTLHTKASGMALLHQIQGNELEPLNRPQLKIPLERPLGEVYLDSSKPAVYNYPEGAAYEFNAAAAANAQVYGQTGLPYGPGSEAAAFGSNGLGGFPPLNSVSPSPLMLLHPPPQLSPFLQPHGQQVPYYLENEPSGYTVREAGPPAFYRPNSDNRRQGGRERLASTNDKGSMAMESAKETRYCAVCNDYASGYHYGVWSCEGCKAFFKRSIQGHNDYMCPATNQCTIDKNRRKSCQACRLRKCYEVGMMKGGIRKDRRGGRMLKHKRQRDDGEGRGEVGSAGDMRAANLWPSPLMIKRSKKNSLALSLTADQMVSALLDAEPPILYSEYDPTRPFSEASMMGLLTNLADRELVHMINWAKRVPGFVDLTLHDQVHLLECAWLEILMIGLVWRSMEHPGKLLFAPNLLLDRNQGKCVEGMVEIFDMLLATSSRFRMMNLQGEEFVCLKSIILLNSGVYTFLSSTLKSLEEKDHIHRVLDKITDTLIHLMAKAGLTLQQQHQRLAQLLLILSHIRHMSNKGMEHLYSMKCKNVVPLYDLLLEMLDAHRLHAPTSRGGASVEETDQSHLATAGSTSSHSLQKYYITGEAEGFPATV

[4] = target: T2, Estrogen receptor (Homo sapiens); test: Antagonist activity at human ERalpha expressed in HEK293T cells after 24 hrs by ERE-based dual luciferase reporter gene assay relative to E2; format: cell-based
[5] = target: T1, Estrogen receptor beta; test: Agonist activity at human ERbeta expressed in HEK293T cells after 24 hrs by ERE-based dual luciferase reporter gene assay; format: cell-based
[6] = target: T3, Estrogen receptor (Homo sapiens, UniProt P03372); test: Antagonist activity at human ERalpha expressed in HEK293T cells after 24 hrs by ERE-based dual luciferase reporter gene assay; format: cell-based
T3 sequence (P03372 whole entry): T2 sequence (whole entry)

[7] = test system: Mus musculus; test: Antiinflammatory activity in Balb/c mouse xenografted with human MCF7 cells assessed as inhibition of TNFalpha expression in tissues around the tumor at 17.5 to 25 mg/kg, po administered once every 2 days via gavage measured after 2 weeks post dose; format: functional, organism-based
[8] = test system: MCF7; test: Antitumor activity against human MCF7 cells xenografted in nude Balb/c mouse assessed as reduction in tumor burden at 17.5 mg/kg, po administered once every 2 days via gavage measured every 3 days; format: functional, organism-based
[9] = test system: MCF7; test: Antiproliferative activity against human MCF7 cells at 5 to 20 uM after 48 hrs in presence of JSH-23 by MTT assay
[10] = Inhibition of NFkappaB in mouse RAW 264.7 cells assessed as reduction in LPS induced NO production after 24 hrs by Griess assay; format: cell-based; conditions: RAW264.7, 24 h
[11] = target: T1, Estrogen receptor beta; test: Antagonist activity at human ERbeta expressed in HEK293T cells after 24 hrs by ERE-based dual luciferase reporter gene assay; format: cell-based
[12] = target: T1, Estrogen receptor beta; test: Agonist activity at human ERbeta expressed in HEK293T cells after 24 hrs by ERE-based dual luciferase reporter gene assay relative to E2; format: cell-based
[13] = test system: MCF7; test: Antitumor activity against human MCF7 cells xenografted in nude Balb/c mouse assessed as tumor growth inhibition at 25 mg/kg, po administered once every 2 days via gavage measured on day 27; format: functional; conditions: read-out: TGI
[14] = test system: Mus musculus; test: Antiinflammatory activity in Balb/c mouse xenografted with human MCF7 cells assessed as inhibition of IL6 expression in tissues around the tumor at 17.5 to 25 mg/kg, po administered once every 2 days via gavage measured after 2 weeks post dose; format: functional, organism-based
[15] = test system: MCF7; test: Antitumor activity against human MCF7 cells xenografted in nude Balb/c mouse assessed as reduction in tumor burden at 25 mg/kg, po administered once every 2 days via gavage measured on day 12; format: functional; set-up: scale not given: the % may be the effect or the level left
[16] = target: T3, Estrogen receptor; test: Binding affinity to human ERalpha LBD after 2 hrs in absence of light by competitive fluorometric binding assay
[17] = species: Mus musculus; test: Inhibition of NFkappaB in mouse RAW 264.7 cells assessed as reduction in LPS induced NO production at 10 uM after 24 hrs by Griess assay relative to control; format: cell-based
[18] = test system: MCF7; test: cells; conditions: Homo sapiens, MCF7, 72 h
[19] = test system: Mus musculus; test: Toxicity in nude Balb/c mouse xenografted with human MCF7 cells assessed as reduction in body weight at 17.5 to 25 mg/kg, po administered once every 2 days via gavage measured every 3 days; format: organism-based; conditions: in vivo
[20] = target: T1, Estrogen receptor beta; test: Antagonist activity at human ERbeta expressed in HEK293T cells after 24 hrs by ERE-based dual luciferase reporter gene assay relative to E2; format: cell-based; set-up: concentration or dose not given beside the values
[21] = Inhibition of NFkappaB in mouse RAW 264.7 cells assessed as reduction in LPS induced NO production after 24 hrs in presence of OBHS by Griess assay; conditions: RAW264.7, 24 h
[22] = test system: MCF7; test: Antiproliferative activity against human MCF7 cells after 72 hrs in presence of OBHS by MTT assay; conditions: MCF7, 72 h
[23] = species: Mus musculus; test: Inhibition of NFkappaB in mouse RAW 264.7 cells assessed as reduction in LPS induced NO production at 10 uM after 24 hrs in presence of OBHS by Griess assay relative to control; format: cell-based
[24] = species: Mus musculus; test: Inhibition of NFkappaB in mouse RAW 264.7 cells assessed as reduction in LPS induced NO production at 10 uM after 24 hrs in presence of resveratrol by Griess assay relative to control; format: cell-based
[25] = Inhibition of NFkappaB in mouse RAW 264.7 cells assessed as reduction in LPS induced NO production after 24 hrs in presence of resveratrol by Griess assay relative to control; format: cell-based; conditions: RAW264.7, 24 h
[26] = test system: MCF7; test: Antiproliferative activity against human MCF7 cells after 72 hrs in presence of resveratrol by MTT assay; format: functional, cell-based; conditions: MCF7, 72 h
[27] = target: T3, Estrogen receptor; test: Agonist activity at human ERalpha expressed in HEK293T cells after 24 hrs by ERE-based dual luciferase reporter gene assay; format: cell-based

T1 sequence (Q92731 whole entry, the tested form may be a part): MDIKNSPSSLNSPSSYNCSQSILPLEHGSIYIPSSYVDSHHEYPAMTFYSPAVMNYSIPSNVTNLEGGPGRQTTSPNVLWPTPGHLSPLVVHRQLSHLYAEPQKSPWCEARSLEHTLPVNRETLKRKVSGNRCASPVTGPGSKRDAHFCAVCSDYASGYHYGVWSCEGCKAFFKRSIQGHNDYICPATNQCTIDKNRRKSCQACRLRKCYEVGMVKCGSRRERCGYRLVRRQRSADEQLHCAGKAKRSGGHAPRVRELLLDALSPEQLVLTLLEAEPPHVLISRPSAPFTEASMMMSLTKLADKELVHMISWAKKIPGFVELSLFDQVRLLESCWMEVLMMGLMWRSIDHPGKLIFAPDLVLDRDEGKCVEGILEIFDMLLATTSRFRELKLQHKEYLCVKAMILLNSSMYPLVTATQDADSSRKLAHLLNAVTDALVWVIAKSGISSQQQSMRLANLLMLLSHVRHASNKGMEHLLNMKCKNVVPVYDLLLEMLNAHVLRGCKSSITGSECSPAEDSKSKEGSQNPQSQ

Ki [1]	Efficacy [3]	Efficacy [4]	EC50 [5]	IC50 [6]	IC50 [10]	Efficacy [12]	Ki [16]	IC50 [18]	Efficacy [20]	SMILES	inhibition [17]	further results
0.0734 µM	9 to 23%	48%	4 nM	7 nM	0.44 µM	23%	34.9 nM	3.7 µM	32%	COc1cc(/C=C/c2ccc(OS(=O)(=O)C3CC4OC3C(c3ccc(O)cc3)=C4c3ccc(O)cc3)cc2)cc(OC)c1 (centres undefined)	95.6%	inhibition [2]: Active; inhibition [7]: Active; Activity [8]: Active; Activity [9]: inactive; IC50 [11]: 934 nM; inhibition in vivo at 25 mg/kg [13]: ≤ 69%; inhibition [14]: Active; Activity [15]: 55%; Activity [19]: Non-Toxic
> 10 µM	18%	97%		9270 nM	> 100 µM	6%	> 10000 nM	> 100 µM	94%	COc1cc(/C=C/c2ccc(C3=C(c4ccc(O)cc4)C4CC(S(=O)(=O)Oc5ccc(Br)cc5)C3O4)cc2)cc(OC)c1 (centres undefined)	30.8%	
					13.1 µM			22.9 µM		Oc1ccc(/C=C/c2cc(O)cc(O)c2)cc1 [RESVERATROL]	48%	IC50 [21]: 11 µM; IC50 [22]: 25.4 µM; inhibition [23]: 80.4%
	-24%	3%	2900 nM		17.2 µM	48%	499 nM	18.3 µM	82%	O=S(=O)(Oc1ccccc1C(F)(F)F)C1CC2OC1C(c1ccc(/C=C/c3cc(O)cc(O)c3)cc1)=C2c1ccc(O)cc1 (centres undefined)	38.5%	
					18.4 µM			32 µM		O=S(=O)(Oc1ccccc1)[C@H]1C[C@@H]2O[C@@H]1C(c1ccc(O)cc1)=C2c1ccc(O)cc1 (relative stereo)	41.5%	inhibition [24]: 80.4%; IC50 [25]: 11 µM; IC50 [26]: 25.4 µM
> 10 µM	10%	89%	5760 nM		> 100 µM	57%	> 10000 nM	> 100 µM	85%	COc1cc(/C=C/c2ccc(C3=C(c4ccc(O)cc4)C4CC(S(=O)(=O)Oc5ccccc5)C3O4)cc2)cc(OC)c1 (centres undefined)	20.4%	
	77%	1%	780 nM	2 nM	12.5 µM	29%		9.2 µM	42%	Cc1ccc(OS(=O)(=O)C2CC3OC2C(c2ccc(/C=C/c4cc(O)cc(O)c4)cc2)=C3c2ccc(O)cc2)cc1 (centres undefined)	42.3%	IC50 [11]: 69 nM; EC50 [27]: 71 nM
										CC/C(=C(\c1ccccc1)c1ccc(OCCN(C)C)cc1)c1ccccc1 [TAMOXIFEN]		inhibition in vivo at 25 mg/kg [13]: 33%; Activity [15]: 48%
